Source: patent publication US8604040B2 (priority 2010, dated 2013)
Where two headings read alike, the source gives them in different places. Marks after values point to notes of the source that are not given here.

Key:
Phytophthora infestans = type: in vivo; settings: protective, young tomato plants, active ingredient concentration 500 ppm, evaluation 7 days after inoculation
[1] = log P by HPLC (EEC Directive 79/831 Annex V.A8); type: physicochemical
Plasmopara viticola = test: Plasmopara test (grapevine) / protective; type: in vivo; settings: young grapevine plants, active ingredient concentration 100 ppm, evaluation 6 days after inoculation
Description: Plasmopara Test (Grapevine)/Protective
Solvent: 24.5 parts by weight of acetone
• 24.5 parts by weight of dimethylacetamide Emulsifier: 1 part by weight of alkylaryl polyglycol ether
To prepare an appropriate active ingredient preparation, 1 part by weight of active ingredient is mixed with the stated amounts of solvent and emulsifier, and the concentrate is diluted with water to the desired concentration.
To test for protective efficacy, young plants are sprayed with the active ingredient preparation at the stated application rate. After the spray coating has dried on, the plants are inoculated with an aqueous spore suspension of Plasmopara viticola and then remain in an incubation cabin at approx. 20° C. and 100% relative atmospheric humidity for 1 day. Subsequently, the plants are placed in a greenhouse at approx. 21° C. and approx. 90% air humidity for 4 days. The plants are then moistened and placed into an incubation cabin for 1 day.
Evaluation follows 6 days after the inoculation. 0% means an efficacy which corresponds to that of the control, whereas an efficacy of 100% means that no infection is observed.

[2] = [a] HPLC, acidic range, pH 2.3, 0.1% aqueous phosphoric acid and acetonitrile
[3] = [c] LC-MS, neutral range, pH 7.8, 0.001 molar aqueous ammonium hydrogencarbonate and acetonitrile
[4] = [b] LC-MS, acidic range, pH 2.7, 0.1% aqueous formic acid and acetonitrile
[5] = HPLC, pH 2.7, given in the preparation examples, read-out: logP (pH2.7)

Row | SMILES | efficacy (Phytophthora infestans) [%] | log P [1, 2] | log P [1, 3] | log P [1, 4] | other results
1 | O=C(OCc1ccccc1F)c1cccc(N2CCN(C(=O)Cn3nc(C(F)F)cc3C(F)F)CC2)n1 [Example 137] | 93 | 3.47 | 3.49 | – | –
2 | O=C(Sc1cccc2ccccc12)c1cccc(N2CCN(C(=O)Cn3nc(C(F)F)cc3C(F)F)CC2)n1 [Example 120] | 93 | 4.25 | 4.28 | – | –
3 | Cc1cc(C(F)(F)F)nn1CC(=O)N1CCN(c2cccc(C(=O)OCc3c(F)cc(F)cc3F)n2)CC1 [Example 118] | 93 | – | 3.71 | 3.68 | –
4 | Cc1cc(C(F)(F)F)nn1CC(=O)N1CCN(c2cccc(C(=O)OC3CCCc4ccccc43)n2)CC1 (stereo not drawn) [Example 70] | 97 | – | 4.2 | 4.19 | –
5 | O=C(OC1CCCCC1)c1cccc(N2CCN(C(=O)Cn3nc(C(F)F)cc3C(F)F)CC2)n1 [Example 140] | 93 | 3.83 | 3.86 | – | efficacy (Plasmopara viticola): 71%
6 | O=C(Oc1cccc2ccccc12)c1cccc(N2CCN(C(=O)Cn3nc(C(F)F)cc3C(F)F)CC2)n1 [Example 141] | 71 | – | 3.88^[c] | – | –
7 | Cc1cc(C(F)(F)F)nn1CC(=O)N1CCN(c2cccc(C(=O)OC3C=CCCC3)n2)CC1 (stereo not drawn) [Example 68] | 94 | – | 3.7 | 3.67 | –
8 | Cc1cc(C(F)(F)F)nn1CC(=O)N1CCN(c2cccc(C(=O)Oc3cccc4ccccc34)n2)CC1 [Example 75] | 71 | – | 4 | 3.99 | –
9 | O=C(OCc1c(F)cccc1F)c1cccc(N2CCN(C(=O)Cn3nc(C(F)F)cc3C(F)F)CC2)n1 [Example 138] | 93 | 3.43^[a]; 3.43^[c] | 3.43^[a]; 3.43^[c] | – | –
10 | CN(C(=O)c1cccc(N2CCN(C(=O)Cn3nc(C(F)F)cc3C(F)F)CC2)n1)C1CCCc2ccccc21 (stereo not drawn) [Example 143] | 71 | 3.42 | 3.45 | – | –
11 | O=C(OC1C=CCCC1)c1cccc(N2CCN(C(=O)Cn3nc(C(F)F)cc3C(F)F)CC2)n1 (stereo not drawn) [Example 142] | 83 | 3.56 | 3.6 | – | –
12 | Cc1cc(C(F)(F)F)nn1CC(=O)N1CCN(c2cccc(C(=O)N(C)Cc3ccccc3Br)n2)CC1 [Example 3] | 88 | – | 3.46 | 3.44 | –
13 | Cc1cc(C(F)(F)F)nn1CC(=O)N1CCN(c2cccc(C(=O)OC3CCCCC3)n2)CC1 [Example 69] | 71 | – | – | 3.96 | –
14 | C=CCCCCOC(=O)c1cccc(N2CCN(C(=O)Cn3nc(C(F)(F)F)cc3C)CC2)n1 [Example 71] | 76 | – | 3.95 | – | –
15 | Cc1cc(C(F)(F)F)nn1CC(=O)N1CCN(c2cccc(C(=O)OCc3ccccc3F)n2)CC1 [Example 73] | 71 | – | 3.6 | 3.58 | –
16 | O=C(Sc1cccs1)c1cccc(C2CCN(C(=O)Cn3nc(C(F)F)cc3C(F)F)CC2)n1 [Example 123] | 93 | 3.76 | 3.77 | – | –
17 | O=C(OCc1ccccc1F)c1cccc(C2CCN(C(=O)Cn3nc(C(F)F)cc3C(F)F)CC2)n1 [Example 106] | – | – | – | 3.45^[b] | –
18 | Cc1cc(C(F)(F)F)nn1CC(=O)N1CCC(c2cccc(C(=O)NCc3ccccn3)n2)CC1 [Example 25] | – | – | 2.44 | 1.97 | –
19 | O=C(Sc1cccs1)c1cccc(N2CCN(C(=O)Cn3nc(C(F)F)cc3C(F)F)CC2)n1 [Example 124] | – | 3.73 | 3.75 | – | –
20 | O=C(SCc1ccc(F)cc1)c1cccc(C2CCN(C(=O)Cn3nc(C(F)F)cc3C(F)F)CC2)n1 [Example 128] | – | 4.1 | 4.15 | – | –

Row | SMILES | efficacy (Phytophthora infestans) [%] | log P [1, 2] | log P [1, 3] | log P [1, 4] | other results
21 | O=C(SCc1ccccc1Cl)c1cccc(N2CCN(C(=O)Cn3nc(C(F)F)cc3C(F)F)CC2)n1 [Example 127] | – | 4.42 | 4.44 | – | –
22 | O=C(SCc1ccccc1Cl)c1cccc(C2CCN(C(=O)Cn3nc(C(F)F)cc3C(F)F)CC2)n1 [Example 126] | – | 4.44 | 4.49 | – | –
23 | O=C(OCc1ccccc1OC(F)(F)F)c1cccc(C2CCN(C(=O)Cn3nc(C(F)F)cc3C(F)F)CC2)n1 [Example 7] | – | – | – | 3.98^[b] | –
24 | Cc1cc(C(F)(F)F)nn1CC(=O)N1CCC(c2cccc(C(=O)NCc3ccc(Cl)cc3Cl)n2)CC1 [Example 21] | – | – | 4 | 4.1 | –
25 | Cc1cc(C(F)(F)F)nn1CC(=O)N1CCC(c2cccc(C(=O)NC(C)c3ccccc3Cl)n2)CC1 (racemic) [Example 16] | – | – | 3.75 | 3.82 | –
26 | Cc1cc(C(F)(F)F)nn1CC(=O)N1CCC(c2cccc(C(=O)OCC#Cc3ccccc3Cl)n2)CC1 [Example 36] | – | – | – | 4.03^[b] | –
27 | O=C(OC1CCCc2ccccc21)c1cccc(N2CCN(C(=O)Cn3nc(C(F)F)cc3C(F)F)CC2)n1 (stereo not drawn) [Example 117, 1,2,3,4-Tetrahydronaphthalen-1-yl 6-(4-{[3,5-bis(difluoromethyl)-1H-pyrazol-1-yl]-acetyl}piperazin-1-yl)pyridine-2-carboxylate] | 93 | – | – | – | chromatographic logP ([1]; HPLC (LC-MS), [c] LC-MS, neutral range, pH 7.8, 0.001 molar aqueous ammonium hydrogencarbonate and acetonitrile, read-out: log P): 4.07; chromatographic logP [1, 5]: 4.02; chromatographic logP ([1]; [a] HPLC, acidic range, pH 2.3, 0.1% aqueous phosphoric acid and acetonitrile, read-out: log P): 4.02; efficacy (Plasmopara viticola): 93%
28 | Cc1ccsc1CNC(=O)c1cccc(C2CCN(C(=O)Cn3nc(C(F)(F)F)cc3C)CC2)n1 [Example 27] | – | – | 3.34 | 3.29 | –
29 | CCOC(=O)c1cccc(C2CCN(C(=O)Cn3nc(C(F)(F)F)cc3C)CC2)n1 [Example 132] | – | – | – | 2.73^[b] | –
30 | CN(C(=O)c1cccc(C2CCN(C(=O)Cn3nc(C(F)F)cc3C(F)F)CC2)n1)c1ccccc1Cl [Example 77] | – | – | 3.01^[b]; 3.01^[c] | 3.01^[b]; 3.01^[c] | –
31 | Cc1cc(C(F)(F)F)nn1CC(=O)N1CCC(c2cccc(C(=O)OCc3ccccc3OC(F)(F)F)n2)CC1 [Example 8] | – | – | – | 4.06^[b] | –
32 | O=C(NCc1ccc(Cl)cc1Cl)c1cccc(C2CCN(C(=O)Cn3nc(C(F)F)cc3C(F)F)CC2)n1 [Example 86] | – | – | 3.86^[b]; 3.86^[c] | 3.86^[b]; 3.86^[c] | –
33 | Cc1cc(C(F)(F)F)nn1CC(=O)N1CCC(c2cccc(C(=O)OC3CCCc4ccccc43)n2)CC1 (stereo not drawn) [Example 35] | – | – | – | 4.15^[b] | –
34 | Cc1cc(C(F)(F)F)nn1CC(=O)N1CCC(c2cccc(C(=O)SCc3c(F)cccc3F)n2)CC1 [Example 58] | – | – | 4.29 | 4.27 | –
35 | COCCOC(=O)c1cccc(C2CCN(C(=O)Cn3nc(C(F)(F)F)cc3C)CC2)n1 [Example 41] | – | – | – | 2.46^[b] | –
36 | Cc1cc(C(F)(F)F)nn1CC(=O)N1CCN(c2cccc(C(=O)N(C)C3CCCCC3)n2)CC1 [Example 64] | – | – | 3.21 | 3.19 | –
37 | O=C(Sc1cccc2ccccc12)c1cccc(C2CCN(C(=O)Cn3nc(C(F)F)cc3C(F)F)CC2)n1 [Example 114] | – | 4.4 | 4.42 | – | –
38 | O=C(SCc1c(F)cccc1F)c1cccc(C2CCN(C(=O)Cn3nc(C(F)F)cc3C(F)F)CC2)n1 [Example 113] | – | 4.12 | 4.13 | – | –
39 | CC(C)(C)OC(=O)N1CCN(c2cccc(Br)n2)CC1 [tert-Butyl 4-(6-bromopyridin-2-yl)piperazine-1-carboxylate] | – | – | – | – | chromatographic logP [1, 5]: 4.08
